The values that follow come from patent publication US20240409536A1, “COMPOUNDS AND METHODS FOR MODULATING SPLICING” (REMIX THERAPEUTICS INC., priority 2021, published 2024).

The test system of test [1] is HTT mRNA. Nature of the test: Splicing RT-qPCR assay, HTT canonical (CJ) and alternative (AJ) junction mRNA. The test is classed as cell-based. Particulars: Homo sapiens, A673 or K562 cells, 24 hours; for IC50: decrease in canonical junction mRNA; for AC50: increase in alternative junction mRNA. The method in brief:
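A673 (DMEM/10% FBS, plated 24 h before dosing) or K562 (IMDM/10% FBS) cells treated 24 h at 37 °C with 11-point 3-fold dilutions, top final 10 uM, DMSO ≤0.25%. Lysates analysed by one-step RT-qPCR for CJ and AJ isoforms, normalized to GAPDH/GUSB (K562) or PPIA (A673).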

The subject of test [2] is HiBiT-tagged MYB protein. Nature of the test: HiBiT protein abundance assay, MYB (K562 HiBiT knock-in cells). The test is classed as cell-based, human. Particulars: 24 hours. The method, boiled down:
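K562 cells with endogenous HiBiT knock-in tag, 10-point 3-fold dilutions (top 10 μM final, ≤0.25% DMSO), 24 h at 37 °C. Lytic Nano-Glo HiBiT luminescence, normalized to DMSO and unmodified K562 baselines; IC50 is concentration giving 50% protein abundance from four-parameter fit.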
For orientation: HiBiT is a short tag that completes a luciferase, so light tracks the accessible tagged protein.

For orientation: IC50 means the point on the concentration scale where inhibition reaches its midpoint. A lower IC50 goes with greater potency. The AC50 is the concentration at which the activity in the assay is half-maximal. A higher AC50 goes with activity only at high concentration. On to `COc1cnc2c(N3CCNCC3)ccc(C(=O)Nc3cc(F)c4nc(C)cn4c3)c2n1` [Compound 207, N-{8-fluoro-2-methylimidazo[1,2-a]pyridin-6-yl}-3-methoxy-8-(piperazin-1-yl)quinoxaline-5-carboxamide; bis(trifluoroacetic acid)], for which the IC50 was 100 to 1000 nM in test [1] and under 100 nM in test [2]. The molecule also yielded an AC50 in test [1] of 1000 to 10000 nM.
For `Cc1cnc2c(C(=O)Nc3cc(F)c4nc(C)cn4c3)ccc(N3CCC(N(C)C)CC3)c2n1` [Compound 208, 8-[4-(dimethylamino)piperidin-1-yl]-N-{8-fluoro-2-methylimidazo[1,2-a]pyridin-6-yl}-2-methylquinoxaline-5-carboxamide; bis(trifluoroacetic acid)] the same measures were 1000 to 10000 nM, under 100 nM and 1000 to 10000 nM.
For `Cc1ccc2c(N3C[C@@H](C)N[C@@H](C)C3)ccc(C(=O)Nc3cc(F)c4nc(C)cn4c3)c2n1` [Compound 214, 5-[(3R,5S)-3,5-dimethylpiperazin-1-yl]-N-{8-fluoro-2-methylimidazo[1,2-a]pyridin-6-yl}-2-methylquinoline-8-carboxamide] the same measures were 100 to 1000 nM, under 100 nM and 1000 to 10000 nM.
In test [1], `Cc1ccc2c(N3CCC(N(C)C)CC3)ccc(C(=O)Nc3cc(F)c4nc(C)cn4c3)c2n1` [Compound 215, 5-[4-(dimethylamino)piperidin-1-yl]-N-{8-fluoro-2-methylimidazo[1,2-a]pyridin-6-yl}-2-methylquinoline-8-carboxamide] registered an IC50 of 100 to 1000 nM and an AC50 of 1000 to 10000 nM. Moreover, the IC50 in test [2] was under 100 nM.
On the same counts, the results for `Cc1cnc2c(N3C[C@@H](C)N[C@@H](C)C3)ccc(C(=O)Nc3cc(F)c4nc(C)cn4c3)c2n1` [Compound 216, 8-((3R,5S)-3,5-dimethylpiperazin-1-yl)-N-{8-fluoro-2-methylimidazo[1,2-a]pyridin-6-yl}-3-methylquinoxaline-5-carboxamide] are 1000 to 10000 nM, over 10000 nM and under 100 nM.
For `Cc1cn2cc(NC(=O)c3ccc(N4CCNC5(CC5)C4)c4nccnc34)cc(F)c2n1` [Compound 218, 8-{4,7-diazaspiro[2.5]octan-7-yl}-N-{8-fluoro-2-methylimidazo[1,2-a]pyridin-6-yl}quinoxaline-5-carboxamide] the same measures were over 10000 nM, 1000 to 10000 nM and under 100 nM.
On the same counts, the results for `Cc1cn2cc(NC(=O)c3ccc(N4CC(C)(C)NC(C)(C)C4)c4nccnc34)cc(F)c2n1` [Compound 219, N-{8-fluoro-2-methylimidazo[1,2-a]pyridin-6-yl}-8-(3,3,5,5-tetramethylpiperazin-1-yl)quinoxaline-5-carboxamide] are 1000 to 10000 nM, 1000 to 10000 nM and under 100 nM.
In test [1], `Cc1cn2cc(NC(=O)c3ccc(N4CCNC(C)(C)C4)c4nccnc34)cc(F)c2n1` [Compound 220, 8-(3,3-dimethylpiperazin-1-yl)-N-{8-fluoro-2-methylimidazo[1,2-a]pyridin-6-yl}quinoxaline-5-carboxamide] showed an IC50 of 1000 to 10000 nM and a half-maximal activity concentration (AC50) of 1000 to 10000 nM. In test [2], this molecule came in with an IC50 of under 100 nM.
Regarding `CCNC1CCN(c2ccc(C(=O)Nc3cc(F)c4nc(C)sc4c3)c3nnccc23)CC1` [Compound 221, 5-[4-(ethylamino)piperidin-1-yl]-N-(4-fluoro-2-methyl-1,3-benzothiazol-6-yl)cinnoline-8-carboxamide], the figures for the IC50 in test [1] and in test [2] were 1000 to 10000 nM and 100 to 1000 nM, respectively. Besides, in test [1], the AC50 is 1000 to 10000 nM.
On to `COc1cnc2c(C(=O)Nc3cc(F)c4nc(C)cn4c3)ccc(N3C[C@@H](C)N[C@@H](C)C3)c2n1` [Compound 223], for which, in test [1], the IC50 lay in the range of 100 to 1000 nM and the AC50 is 100 to 1000 nM. In test [2], this molecule had an IC50 of under 100 nM.
As to `COc1cnc2c(C(=O)Nc3cc(F)c4nc(C)cn4c3)ccc(N3CCNCC3)c2n1` [Compound 225, N-{8-fluoro-2-methylimidazo[1,2-a]pyridin-6-yl}-2-methoxy-8-(piperazin-1-yl)quinoxaline-5-carboxamide], the figures for the IC50 in test [1] and in test [2] were over 10000 nM and under 100 nM, respectively. Also, the AC50 in test [1] was over 10000 nM.
For `Cc1cn2cc(NC(=O)c3ccc(N4CCN(CCF)C5(CC5)C4)c4nccnc34)cc(F)c2n1` [Compound 370], in test [1], the IC50 was over 10000 nM and the AC50 was over 10000 nM. The IC50 in test [2] lay in the range of 1000 to 10000 nM.
As to `Cc1cn2cc(NC(=O)c3ccc(C4CCNCC4)c4nccnc34)cc(F)c2n1` [Compound 371], the IC50 in test [1] and in test [2] was 100 to 1000 nM throughout. The molecule also registered an AC50 in test [1] of 100 to 1000 nM.
As for `Cc1cn2cc(NC(=O)c3ccc(N4CCNC5(COC5)C4)c4nccnc34)cc(F)c2n1` [Compound 372], in test [1], the IC50 is over 10000 nM and the AC50 was over 10000 nM. In test [2], this molecule had an IC50 of 1000 to 10000 nM.
In test [1], `Cc1cn2cc(NC(=O)c3ccc(N4CCNC5(CCOC5)C4)c4nccnc34)cc(F)c2n1` (stereo not drawn) [Compound 373] came in with an IC50 of over 10000 nM and an AC50 of over 10000 nM. In addition, in test [2], the IC50 was in the range of 100 to 1000 nM.
Turning to `Cc1cn2cc(NC(=O)c3ccc(N4CCNC5(CCOCC5)C4)c4nccnc34)cc(F)c2n1` [Compound 374], in test [1], the IC50 lay in the range of 1000 to 10000 nM and the AC50 is 1000 to 10000 nM. The molecule further had an IC50 in test [2] of 100 to 1000 nM.
In test [1], `Cc1cn2cc(NC(=O)c3ccc(C4CCNC5(CC5)C4)c4nccnc34)cc(F)c2n1` (stereo not drawn) [Compound 375] came in with an IC50 of 1000 to 10000 nM and an AC50 of 1000 to 10000 nM. The molecule also registered an IC50 in test [2] of 100 to 1000 nM.
In test [1], `Cc1cn2cc(NC(=O)c3ccc(N4C[C@@H](C)NC5(CC5)C4)c4nccnc34)cc(F)c2n1` [Compound 376] showed an IC50 of over 10000 nM and an AC50 of over 10000 nM. In addition, in test [2], the IC50 is 100 to 1000 nM.
In test [1], `Cc1cn2cc(NC(=O)c3ccc(N4C[C@H](C)NC5(CC5)C4)c4nccnc34)cc(F)c2n1` [Compound 377] yielded an IC50 of 1000 to 10000 nM and an AC50 of 1000 to 10000 nM. Besides, the IC50 in test [2] is 100 to 1000 nM.
Turning to `COc1ncc2c(N3C[C@@H](C)N[C@@H](C)C3)ccc(C(=O)Nc3cn4cc(C)nc4c(OC)n3)c2n1` [Compound 378], in test [1], the IC50 fell in the range of 100 to 1000 nM and the AC50 is 100 to 1000 nM. Also, the IC50 in test [2] was under 100 nM.
